From article PMC9410420, “Novel Labdane Diterpenes-Based Synthetic Derivatives: Identification of a Bifunctional Vasodilator That Inhibits CaV1.2 and Stimulates KCa1.1 Channels” (Marine Drugs, 2022)

What was measured:
CaV1.2 channel [1] = target: T1, CaV1.2 channel (Rattus norvegicus, UniProt P22002); assay: Whole-cell patch-clamp, Ba2+ current through CaV1.2 channels (IBa1.2) in rat tail artery myocytes; type: cell-based; details: for Emax: read-out: Emax (percent maximal inhibition), IBa1.2; for IC50: read-out: IC50, IBa1.2 inhibition
T1 construct: smooth muscle cells were freshly isolated; endogenous in cells; host or cells: freshly isolated rat tail main artery smooth muscle cells
Experimental: The tail main artery was dissected free of its connective tissue, and smooth muscle cells were freshly isolated under the following conditions. […] Cells stored in 0.05 mM Ca^2+ external solution containing 20 mM taurine and 0.5 mg/mL BSA at 4 °C under normal air were used for experiments within two days after isolation.
An Axopatch 200B patch-clamp amplifier (Molecular Devices Corporation, Sunnyvale, CA, USA) was used to generate and apply voltage pulses to the clamped cells and record the corresponding membrane currents. Recording electrodes were pulled from borosilicate glass capillaries (WPI, Berlin, Germany) and fire-polished to obtain a pipette resistance of 2–4 MΩ, when filled with an internal solution. At the beginning of each experiment, the junction potential between the pipette and bath solution was electronically adjusted to zero. […] Electrophysiological responses were tested at room temperature (20–22 °C).
The conventional whole-cell patch-clamp method was employed to voltage-clamp smooth muscle cells. The internal solution consisted of (in mM) 100 CsCl, 10 HEPES, 11 EGTA, 2 MgCl2, 1 CaCl2 (pCa 8.4), 5 Na pyruvate, 5 succinic acid, 5 oxaloacetic acid, 3 Na2ATP, and 5 phosphocreatine; pH was adjusted to 7.4 with CsOH. IBa1.2 was recorded in an external solution containing 30 mM TEA and 5 mM Ba^2+. […] Data were collected once the current amplitude had been stabilized (usually 7–10 min after the whole-cell configuration had been obtained).

rat aorta rings [2] = assay: KCl-induced contraction of rat aorta rings (electromechanical coupling)
Experimental: (§1) The abdominal aorta was gently cleaned of adipose and connective tissues and cut into 3-mm wide rings. These were mounted in organ baths between two parallel, L-shaped, stainless-steel hooks, with one fixed in place and the other connected to an isometric transducer. Rings were allowed to equilibrate for 60 min in modified Krebs-Henseleit solution (composition in mM: 118 NaCl, 4.75 KCl, 1.19 KH2PO4, 1.19 MgSO4, 25 NaHCO3, 11.5 glucose, 2.5 CaCl2, gassed with a 95% O2–5% CO2 gas mixture to create a pH of 7.4) under a passive tension of 1 g. During this equilibration period, the solution was changed every 15 min. Isometric tension was recorded using a digital PowerLab data acquisition system (PowerLab 8/30; ADInstruments). Ring viability was assessed by recording the response to 0.3 µM phenylephrine and 60 mM KCl. Where needed, the endothelium was removed by gently rubbing the lumen of the ring with a forceps tip. This procedure was validated by adding 10 µM acetylcholine at the plateau of phenylephrine-induced contraction; a relaxation greater than 70% or less than 10% denoted the presence or absence of functional endothelium, respectively.
(§2) Aorta rings were pre-contracted pharmaco-mechanically using 0.3 µM phenylephrine and electromechanically using 25–30 mM or 60 mM KCl. Once the contraction reached a plateau, the compound was added cumulatively into the organ bath. […] The response was calculated as the percentage of phenylephrine- or KCl-induced contraction (taken as 100%).

rat aorta rings [3] = assay: Phenylephrine-induced contraction of rat aorta rings (pharmaco-mechanical coupling); details: for Emax: Rattus norvegicus; for Emax / IC50: 0.3 µM phenylephrine
Experimental: as §1, §2

CaV1.2 channel [4] = target: T1, CaV1.2 channel; assay: Voltage dependence of CaV1.2 channel steady-state activation and inactivation in rat tail artery myocytes; type: cell-based; details: for Slope inact (slope factor of inactivation) / V50 inact (50% inactivation potential): Vh −80 mV
Text: An Axopatch 200B patch-clamp amplifier (Molecular Devices Corporation, Sunnyvale, CA, USA) was used to generate and apply voltage pulses to the clamped cells and record the corresponding membrane currents. Recording electrodes were pulled from borosilicate glass capillaries (WPI, Berlin, Germany) and fire-polished to obtain a pipette resistance of 2–4 MΩ, when filled with an internal solution. At the beginning of each experiment, the junction potential between the pipette and bath solution was electronically adjusted to zero. After compensation for whole-cell capacitance and series resistance (between 70% and 75%), current signals were low-pass filtered at 1 kHz and digitized at 3 kHz, before being stored on a computer hard disk. Electrophysiological responses were tested at room temperature (20–22 °C).
Cells were continuously superfused with an external solution containing 0.1 mM Ca^2+ and 30 mM TEA using a peristaltic pump (LKB 2132, Bromma, Sweden) at a flow rate of 400 µL/min. The conventional whole-cell patch-clamp method was employed to voltage-clamp smooth muscle cells. The internal solution consisted of (in mM) 100 CsCl, 10 HEPES, 11 EGTA, 2 MgCl2, 1 CaCl2 (pCa 8.4), 5 Na pyruvate, 5 succinic acid, 5 oxaloacetic acid, 3 Na2ATP, and 5 phosphocreatine; pH was adjusted to 7.4 with CsOH. IBa1.2 was recorded in an external solution containing 30 mM TEA and 5 mM Ba^2+. The current was elicited with 250-ms clamp pulses (0.067 Hz) to 10 mV, from a Vh of −50 mV. Data were collected once the current amplitude had been stabilized (usually 7–10 min after the whole-cell configuration had been obtained).
Steady-state activation curves were derived from the current–voltage relationships. Conductance (G) was calculated from the equation G = IBa1.2/(Em − Erev), where: IBa1.2 is the peak current elicited by depolarizing test pulses between −50 mV and 40 mV from a Vh of −50 mV; Em is the membrane potential; and Erev is the reversal potential (estimated from the extrapolated current-voltage curves in Figure 2). Gmax is the maximal Ba^2+ conductance (calculated at potentials ≤40 mV). The G/Gmax ratio was plotted against the membrane potential and fitted to the Boltzmann equation [40]. Steady-state inactivation curves were obtained using a double-pulse protocol. Once various levels of the conditioning potential had been applied for 5 s, followed by a short (5-ms) return to the Vh of −80 mV, a test pulse (250 ms) to 10 mV was delivered to evoke the current. The delay between the conditioning potential and the test pulse allowed the full or near-complete deactivation of the channels, simultaneously avoiding partial recovery from inactivation. K^+ currents were blocked with 30 mM TEA in the external solution and Cs^+ in the internal solution. […] The osmolarity of the 30 mM TEA- and 5 mM Ba^2+-containing external solution (320 mosmol, adjusted with NaCl if required) and that of the internal solution (290 mosmol) were measured with an osmometer (Osmostat OM 6020, Menarini Diagnostics, Florence, Italy).

[5] = endothelium-denuded rat aorta rings pre-contracted by 25 mM KCl, read-out: Emax (percent maximal inhibition), KCl 25 mM-induced contraction
[6] = endothelium-denuded rat aorta rings pre-contracted by 60 mM KCl, read-out: Emax (percent maximal inhibition), KCl 60 mM-induced contraction
[7] = endothelium-denuded rat aorta rings pre-contracted by 60 mM KCl, read-out: IC50, KCl 60 mM-induced contraction
[8] = endothelium-denuded rat aorta rings pre-contracted by 25 mM KCl, read-out: IC50, KCl 25 mM-induced contraction
[9] = endothelium-denuded rat aorta rings, read-out: Emax (percent maximal inhibition), phenylephrine-induced contraction, −Endothelium
[10] = endothelium-intact rat aorta rings, read-out: Emax (percent maximal inhibition), phenylephrine-induced contraction, +Endothelium
[11] = endothelium-denuded rat aorta rings

T1 sequence (P22002 whole entry): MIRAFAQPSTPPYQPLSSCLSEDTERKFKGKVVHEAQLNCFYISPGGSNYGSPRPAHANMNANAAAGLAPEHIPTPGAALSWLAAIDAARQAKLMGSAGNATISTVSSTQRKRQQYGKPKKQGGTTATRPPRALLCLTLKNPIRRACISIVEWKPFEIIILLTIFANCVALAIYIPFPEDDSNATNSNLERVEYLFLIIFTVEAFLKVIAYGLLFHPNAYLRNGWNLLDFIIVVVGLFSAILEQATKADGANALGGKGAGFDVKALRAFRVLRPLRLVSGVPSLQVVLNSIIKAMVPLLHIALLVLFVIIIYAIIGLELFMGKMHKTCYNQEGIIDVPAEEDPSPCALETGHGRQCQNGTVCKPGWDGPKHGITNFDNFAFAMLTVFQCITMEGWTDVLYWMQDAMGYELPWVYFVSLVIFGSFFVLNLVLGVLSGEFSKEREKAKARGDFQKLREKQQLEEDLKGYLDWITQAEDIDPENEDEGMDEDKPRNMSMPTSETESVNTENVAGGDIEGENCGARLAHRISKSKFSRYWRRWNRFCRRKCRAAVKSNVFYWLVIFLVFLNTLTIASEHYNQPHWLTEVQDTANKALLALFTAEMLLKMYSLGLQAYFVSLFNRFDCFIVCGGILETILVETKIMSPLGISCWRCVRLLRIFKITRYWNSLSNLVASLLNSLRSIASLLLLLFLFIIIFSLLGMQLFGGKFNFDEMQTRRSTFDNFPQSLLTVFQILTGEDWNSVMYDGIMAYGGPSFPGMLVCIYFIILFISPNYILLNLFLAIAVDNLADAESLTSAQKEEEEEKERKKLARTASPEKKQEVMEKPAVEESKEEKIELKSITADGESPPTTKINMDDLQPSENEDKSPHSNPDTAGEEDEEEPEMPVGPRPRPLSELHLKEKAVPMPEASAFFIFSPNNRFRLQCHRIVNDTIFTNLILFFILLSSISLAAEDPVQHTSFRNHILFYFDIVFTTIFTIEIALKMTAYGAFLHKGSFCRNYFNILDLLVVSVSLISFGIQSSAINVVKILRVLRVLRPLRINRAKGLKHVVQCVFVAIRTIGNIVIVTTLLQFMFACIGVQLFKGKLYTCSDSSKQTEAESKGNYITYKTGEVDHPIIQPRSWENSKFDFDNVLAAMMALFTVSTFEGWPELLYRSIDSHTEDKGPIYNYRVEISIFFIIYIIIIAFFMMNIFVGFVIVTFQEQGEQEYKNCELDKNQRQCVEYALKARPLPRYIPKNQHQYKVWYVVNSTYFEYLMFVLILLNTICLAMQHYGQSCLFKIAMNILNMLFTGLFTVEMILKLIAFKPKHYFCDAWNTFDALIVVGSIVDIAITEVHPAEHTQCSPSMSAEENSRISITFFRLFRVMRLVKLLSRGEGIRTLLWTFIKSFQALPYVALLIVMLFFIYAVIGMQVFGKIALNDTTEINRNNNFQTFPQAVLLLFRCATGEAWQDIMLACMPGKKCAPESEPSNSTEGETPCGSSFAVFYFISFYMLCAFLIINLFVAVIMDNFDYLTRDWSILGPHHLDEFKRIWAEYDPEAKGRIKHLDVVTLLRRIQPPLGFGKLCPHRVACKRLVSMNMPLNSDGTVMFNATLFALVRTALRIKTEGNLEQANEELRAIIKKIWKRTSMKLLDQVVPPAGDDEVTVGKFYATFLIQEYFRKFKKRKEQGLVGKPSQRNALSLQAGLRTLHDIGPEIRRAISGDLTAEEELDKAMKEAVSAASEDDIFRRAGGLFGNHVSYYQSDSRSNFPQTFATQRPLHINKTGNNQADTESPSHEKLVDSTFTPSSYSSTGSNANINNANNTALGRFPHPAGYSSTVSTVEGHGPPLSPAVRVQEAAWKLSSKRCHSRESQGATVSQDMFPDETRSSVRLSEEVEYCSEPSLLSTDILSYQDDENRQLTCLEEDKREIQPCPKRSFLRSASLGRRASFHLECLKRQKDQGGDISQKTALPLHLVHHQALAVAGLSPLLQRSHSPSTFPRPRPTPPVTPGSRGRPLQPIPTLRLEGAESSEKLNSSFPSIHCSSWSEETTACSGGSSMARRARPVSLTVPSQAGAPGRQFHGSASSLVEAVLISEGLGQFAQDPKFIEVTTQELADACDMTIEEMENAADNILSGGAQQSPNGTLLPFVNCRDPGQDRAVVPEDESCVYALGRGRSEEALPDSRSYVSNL
T1 sequence (P54290 25-944 partner limits assumed): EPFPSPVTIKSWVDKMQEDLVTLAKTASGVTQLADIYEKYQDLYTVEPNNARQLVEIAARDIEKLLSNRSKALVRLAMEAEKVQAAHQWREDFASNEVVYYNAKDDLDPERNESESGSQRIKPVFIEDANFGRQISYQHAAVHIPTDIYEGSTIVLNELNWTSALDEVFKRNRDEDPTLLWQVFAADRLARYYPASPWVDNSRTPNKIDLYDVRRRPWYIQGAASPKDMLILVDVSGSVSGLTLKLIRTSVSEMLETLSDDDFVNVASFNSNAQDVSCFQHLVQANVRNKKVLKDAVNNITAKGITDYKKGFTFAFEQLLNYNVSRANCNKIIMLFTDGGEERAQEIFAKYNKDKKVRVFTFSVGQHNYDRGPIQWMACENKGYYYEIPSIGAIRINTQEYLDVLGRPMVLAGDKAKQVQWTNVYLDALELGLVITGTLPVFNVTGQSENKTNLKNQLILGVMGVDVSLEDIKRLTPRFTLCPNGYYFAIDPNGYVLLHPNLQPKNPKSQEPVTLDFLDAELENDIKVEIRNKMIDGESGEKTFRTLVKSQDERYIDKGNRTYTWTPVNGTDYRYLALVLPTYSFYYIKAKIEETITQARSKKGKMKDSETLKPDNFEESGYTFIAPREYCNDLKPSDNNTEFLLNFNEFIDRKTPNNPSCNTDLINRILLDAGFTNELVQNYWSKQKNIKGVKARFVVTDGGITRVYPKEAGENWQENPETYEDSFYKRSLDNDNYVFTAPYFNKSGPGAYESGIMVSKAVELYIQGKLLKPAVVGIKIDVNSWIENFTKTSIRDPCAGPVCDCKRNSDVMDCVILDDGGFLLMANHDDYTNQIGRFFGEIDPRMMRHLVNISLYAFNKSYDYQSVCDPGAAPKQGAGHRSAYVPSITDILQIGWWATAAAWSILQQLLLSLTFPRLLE
T1 sequence (P54290 945-1091 partner limits assumed): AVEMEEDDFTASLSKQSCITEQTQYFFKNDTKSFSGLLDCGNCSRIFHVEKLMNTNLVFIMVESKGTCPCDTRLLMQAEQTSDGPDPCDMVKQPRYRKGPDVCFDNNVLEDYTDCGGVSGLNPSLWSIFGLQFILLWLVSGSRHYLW
T1 sequence (P54287 whole entry partner): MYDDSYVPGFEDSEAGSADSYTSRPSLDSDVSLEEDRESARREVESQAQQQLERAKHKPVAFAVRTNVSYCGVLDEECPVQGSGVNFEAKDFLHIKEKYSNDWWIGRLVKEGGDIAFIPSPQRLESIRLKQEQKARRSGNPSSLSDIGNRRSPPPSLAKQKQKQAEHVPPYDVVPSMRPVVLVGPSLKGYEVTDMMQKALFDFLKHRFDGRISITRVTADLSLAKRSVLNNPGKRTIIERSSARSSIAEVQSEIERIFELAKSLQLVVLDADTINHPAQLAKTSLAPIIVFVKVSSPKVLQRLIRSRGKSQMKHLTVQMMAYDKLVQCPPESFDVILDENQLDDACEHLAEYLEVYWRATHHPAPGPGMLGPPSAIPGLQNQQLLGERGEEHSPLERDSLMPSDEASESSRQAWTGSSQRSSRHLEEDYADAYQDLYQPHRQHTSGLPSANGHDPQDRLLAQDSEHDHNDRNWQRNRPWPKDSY

Compound	Emax (CaV1.2 channel [1]; pulses to 10 mV from Vh −50 mV)	IC50 (CaV1.2 channel [1]; pulses to 10 mV from Vh −50 mV)	Emax (rat aorta rings [2]; [5])	Emax (rat aorta rings [2]; [6])	IC50 (rat aorta rings [2]; [7])	Effect on phenylephrine-induced tone in words (rat aorta rings [3]; endothelium-intact rat aorta rings)	IBa1.2, % of the control (CaV1.2 channel [1]; 100 nM, n = 5)	IC50 (rat aorta rings [2]; [8])	Slope inact (slope factor of inactivation) (CaV1.2 channel [4]; 10 µM compound)	V50 inact (50% inactivation potential) (CaV1.2 channel [4]; 10 µM compound)	Slope act (slope factor of activation) (CaV1.2 channel [4]; 30 µM compound)	V50 act (50% activation potential) (CaV1.2 channel [4]; 30 µM compound)	Emax (rat aorta rings [3]; [9])	Emax (rat aorta rings [3]; [10])	IC50 (rat aorta rings [3]; [11])	Slope act (slope factor of activation) (CaV1.2 channel [4]; 10 µM compound)	V50 act (50% activation potential) (CaV1.2 channel [4]; 10 µM compound)	Emax (percent maximal inhibition), IBa1.2 (CaV1.2 channel [1]; pulses to 10 mV from Vh −50 mV)	Emax (percent maximal inhibition), KCl 60 mM-induced contraction (rat aorta rings [2]; endothelium-denuded rat aorta rings pre-contracted by 60 mM KCl)
CC1(C)CCCC2(C)C1CCC1(C)OC(=O)CC12 (single isomer, unassigned; (+)) [Compound 5, (+)-sclareolide, reference compound]	64.8 ± 6.1%	~69 µM	45.9 ± 8.5%	73.5 ± 6.8%	29.2 ± 6.1 µM	dramatic concentration-dependent increase of phenylephrine-induced tone	–	–	–	–	–	–	–	–	–	–	–	–	–
COC(=O)C1=C(C)NC(C)=C([N+](=O)[O-])[C@H]1c1ccccc1C(F)(F)F [Bay K 8644, (S)-(-)-Bay K 8644, reference compound]	–	–	–	–	–	–	447 ± 28%	–	–	–	–	–	–	–	–	–	–	–	–
CC1(C)CCC[C@]2(C)[C@@H](CC(=O)NCc3ccco3)[C@](C)(O)CC[C@@H]12 [Compound 8]	92.4 ± 2.2%	16.7 ± 3 µM	85.8 ± 4.8%	87.3 ± 4.9%	6.1 ± 1.6 µM	–	–	2.1 ± 0.9 µM	−11.51 ± 1.90	−30.97 ± 3.49 mV	7.61 ± 0.66	0.03 ± 1.35 mV	≤ 60%	15.2 ± 7.9%	~44.7 µM	–	–	–	–
CC1(C)CCC[C@]2(C)[C@@H](CC(=O)NCCc3cccc(F)c3)[C@](C)(O)CC[C@@H]12 [Compound 9]	97.8 ± 0.8%	15.3 ± 5.3 µM	92.3 ± 0.6%	92.4 ± 1.3%	4.5 ± 0.5 µM	–	–	0.9 ± 0.2 µM	−10.25 ± 1.33	−36.46 ± 2.73 mV	–	–	≤ 60%	19.4 ± 23.2%	~55 µM	6.79 ± 0.35	−2.37 ± 0.95 mV	–	–
CC1(C)CCC[C@]2(C)[C@@H](CCOCc3cccc(Cl)c3)[C@](C)(O)CC[C@@H]12 [Compound 10]	86.4 ± 4.9%	20.8 ± 6.1 µM	–	53.1 ± 13.4%	~69.2 µM	–	–	–	–	–	–	–	–	–	–	–	–	–	–
sclareol [Compound 6]	–	33.2 ± 6.8 µM	–	–	11.9 ± 1.3 µM	–	–	–	–	–	–	–	–	–	–	–	–	88.7 ± 4.0 (5) %	98.8 ± 1.3 (5) %
